Experimental data: patent publication US8937041B2, “Macrocyclic hepatitis C serine protease inhibitors” (AbbVie, Inc., priority 2010, dated 2015)

Assays:
[1] = tested on: HCV genotype 1a replicon (1a-H77); assay: microbe, parasite or virus in culture; type: cell-based; details: Hepatitis C virus, read-out: EC50 in a replicon cell line assay in a 1a-H77 background
[2] = molecular target: recombinant HCV NS3 protease, genotype 1a (Hepatitis C virus genotype 1a, UniProt P27958); assay: biochemical; details: genotype 1a NS3 protease; read-out: IC50 in a 1a enzyme assay
recombinant HCV NS3 protease, genotype 1a, sequence (P27958 1027-1657, other chains not shown): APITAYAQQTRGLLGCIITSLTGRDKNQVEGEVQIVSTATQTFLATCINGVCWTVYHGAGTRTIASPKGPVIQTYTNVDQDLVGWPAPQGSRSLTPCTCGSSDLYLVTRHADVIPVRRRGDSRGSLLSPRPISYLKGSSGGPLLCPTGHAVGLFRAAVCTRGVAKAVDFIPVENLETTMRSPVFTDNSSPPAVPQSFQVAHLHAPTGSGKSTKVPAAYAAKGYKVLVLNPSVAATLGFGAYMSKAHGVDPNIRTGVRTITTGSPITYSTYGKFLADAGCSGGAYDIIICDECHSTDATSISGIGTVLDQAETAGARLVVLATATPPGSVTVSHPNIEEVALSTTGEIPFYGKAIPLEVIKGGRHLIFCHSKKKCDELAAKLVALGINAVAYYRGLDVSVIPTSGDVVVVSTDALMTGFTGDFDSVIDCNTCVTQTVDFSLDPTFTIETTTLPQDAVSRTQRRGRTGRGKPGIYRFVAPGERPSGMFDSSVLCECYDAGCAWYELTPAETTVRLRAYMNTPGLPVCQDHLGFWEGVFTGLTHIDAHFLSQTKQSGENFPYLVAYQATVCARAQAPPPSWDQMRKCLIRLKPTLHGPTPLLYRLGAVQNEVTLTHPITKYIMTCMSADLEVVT

[3] = tested on: HCV genotype 1b replicon (1b-Con-1); assay: microbe, parasite or virus in culture; type: cell-based; details: Hepatitis C virus, read-out: EC50 in a replicon cell line assay in a 1b-con1 background
[4] = HLM stability; type: in vitro ADME
[5] = molecular target: recombinant HCV NS3 protease, genotype 1b (Hepatitis C virus genotype 1b, UniProt Q9WMX2); assay: biochemical; details: genotype 1b NS3 protease; read-out: IC50 in a 1b enzyme assay
recombinant HCV NS3 protease, genotype 1b, sequence (Q9WMX2 1027-1657, other chains not shown): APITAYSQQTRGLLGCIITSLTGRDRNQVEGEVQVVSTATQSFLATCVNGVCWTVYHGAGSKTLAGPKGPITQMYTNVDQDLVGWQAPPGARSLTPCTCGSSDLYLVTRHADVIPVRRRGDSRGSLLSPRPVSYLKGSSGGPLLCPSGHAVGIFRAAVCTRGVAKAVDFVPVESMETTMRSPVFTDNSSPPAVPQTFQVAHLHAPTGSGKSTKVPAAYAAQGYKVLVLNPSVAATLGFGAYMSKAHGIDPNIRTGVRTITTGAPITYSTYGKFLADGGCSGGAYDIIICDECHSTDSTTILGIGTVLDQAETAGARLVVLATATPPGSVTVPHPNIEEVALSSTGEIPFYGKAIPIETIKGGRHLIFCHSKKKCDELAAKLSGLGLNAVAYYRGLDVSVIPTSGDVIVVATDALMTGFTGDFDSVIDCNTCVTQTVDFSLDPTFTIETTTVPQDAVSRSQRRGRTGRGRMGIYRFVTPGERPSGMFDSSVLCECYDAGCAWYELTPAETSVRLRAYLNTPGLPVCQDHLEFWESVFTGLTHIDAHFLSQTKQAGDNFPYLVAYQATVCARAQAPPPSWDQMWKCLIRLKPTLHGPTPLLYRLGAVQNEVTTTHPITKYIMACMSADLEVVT

SMILES | EC50 [1] [nM] | IC50 [2] [nM] | EC50 [3] [nM] | HLM stability value [4] [µL/min/mg] | IC50 [5] [nM]
CCc1nc2ccccc2nc1O[C@@H]1C[C@H]2C(=O)N[C@]3(C(=O)NS(=O)(=O)C4CC4)C[C@H]3CC(F)(F)CCCCC[C@H](NC(=O)c3ccon3)C(=O)N2C1 [Example 11, N-((2R,6S ,13aS,14aR,16aS)-14a-(cyclopropylsulfonylcarbamoyl)-2-(3-ethylquinoxalin-2-yloxy)-12,12-difluoro-5,16-dioxooctadecahydrocyclopropa[e]pyrrolo[1,2-a][1,4]diazacyclopentadecin-6-yl)isoxazole-3-carboxamide] | > 5 | 0.1 to 0.5 | 2 to 5 | < 50 | 0.1 to 0.5
CCc1nc2ccccc2nc1O[C@@H]1C[C@H]2C(=O)N[C@]3(C(=O)NS(=O)(=O)C4CC4)C[C@H]3CC(F)(F)CCCCC[C@H](NC(=O)C(C)(C)C)C(=O)N2C1 [Example 12, (2R,6S,13aS,14aR,16a5)-N-(cyclopropylsulfonyl)-2-(3-ethylquinoxalin-2-yloxy)-12,12-difluoro-5,16-dioxo-6-pivalamidooctadecahydrocyclopropa[e]pyrrolo[1,2-a][1,4]diazacyclopentadecine-14a-carboxamide] | > 5 | 0.5 to 1 | > 5 | < 50 | 0.5 to 1
CC(C)(C)OC(=O)N[C@H]1CCCCCC(F)(F)C[C@@H]2C[C@@]2(C(=O)NS(=O)(=O)C2CC2)NC(=O)[C@@H]2C[C@@H](Oc3nc4ccccc4c4ccccc34)CN2C1=O [Example 19, tert-butyl (2R,6S,13aS,14aR,16aS)-14a-(cyclopropylsulfonylcarbamoyl)-12,12-difluoro-5,16-dioxo-2-(phenanthridin-6-yloxy)octadecahydrocyclopropa[e]pyrrolo[1,2-a][1,4]diazacyclopentadecin-6-ylcarbamate] | < 1 | < 0.1 | < 1 | > 100 | < 0.1
